Test results: ChEMBL document CHEMBL5380813, “Discovery of 2H-Indazole-3-carboxamide Derivatives as Novel Potent Prostanoid EP4 Receptor Antagonists for Colorectal Cancer Immunotherapy” (J Med Chem, 2023)

Tests used:
[1] = molecular target: T1, Prostaglandin E2 receptor EP4 subtype (Homo sapiens, UniProt P35408); assay: Antagonist activity at human EP4 receptor transfected in HEK293 cells assessed as inhibition of PGE2-induced cAMP production measured for 30 mins by Glosensor cAMP assay
[2] = Metabolic stability in human liver assessed as intrinsic clearance
[3] = human, microsomes
Description: Metabolic stability in human liver microsomes assessed as assessed as intrinsic clearance

[4] = molecular target: T1, Prostaglandin E2 receptor EP4 subtype; assay: Antagonist activity at EP4 receptor (unknown origin) by GloSensor cAMP assay
CT26 = assay: animal or person; conditions: Mus musculus, CT26, po, 240 h, read-out: TGI
Description: Antitumor activity against mouse CT26 cells implanted in BALB/c mouse assessed as tumor growth inhibition at 100 mg/kg, po administered daily for 10 days and measured every 2 days relative to control

Cytochrome P450 1A2 = molecular target: T2, Cytochrome P450 1A2 (Homo sapiens, UniProt P05177); assay: Inhibition of CYP1A2 (unknown origin); format: ADME
T2 sequence (P05177 whole entry): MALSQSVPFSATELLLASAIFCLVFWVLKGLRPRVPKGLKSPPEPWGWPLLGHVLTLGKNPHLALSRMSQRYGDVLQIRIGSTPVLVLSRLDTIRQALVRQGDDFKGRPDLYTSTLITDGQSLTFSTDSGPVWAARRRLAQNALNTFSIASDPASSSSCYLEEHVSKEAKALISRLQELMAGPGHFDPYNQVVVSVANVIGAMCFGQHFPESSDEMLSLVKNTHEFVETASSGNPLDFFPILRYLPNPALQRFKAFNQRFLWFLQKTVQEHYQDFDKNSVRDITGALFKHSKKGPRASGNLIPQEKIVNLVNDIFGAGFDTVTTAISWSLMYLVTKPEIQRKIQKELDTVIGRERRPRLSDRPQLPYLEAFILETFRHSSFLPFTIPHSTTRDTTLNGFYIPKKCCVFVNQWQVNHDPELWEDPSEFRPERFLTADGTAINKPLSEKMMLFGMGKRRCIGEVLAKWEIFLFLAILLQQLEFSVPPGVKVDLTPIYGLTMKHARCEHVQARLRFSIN

Cytochrome P450 2C9 = Cytochrome P450 2C9 (Homo sapiens, UniProt P11712); assay: Inhibition of CYP2C9 (unknown origin); format: ADME
Chain of Cytochrome P450 2C9 (P11712 whole entry): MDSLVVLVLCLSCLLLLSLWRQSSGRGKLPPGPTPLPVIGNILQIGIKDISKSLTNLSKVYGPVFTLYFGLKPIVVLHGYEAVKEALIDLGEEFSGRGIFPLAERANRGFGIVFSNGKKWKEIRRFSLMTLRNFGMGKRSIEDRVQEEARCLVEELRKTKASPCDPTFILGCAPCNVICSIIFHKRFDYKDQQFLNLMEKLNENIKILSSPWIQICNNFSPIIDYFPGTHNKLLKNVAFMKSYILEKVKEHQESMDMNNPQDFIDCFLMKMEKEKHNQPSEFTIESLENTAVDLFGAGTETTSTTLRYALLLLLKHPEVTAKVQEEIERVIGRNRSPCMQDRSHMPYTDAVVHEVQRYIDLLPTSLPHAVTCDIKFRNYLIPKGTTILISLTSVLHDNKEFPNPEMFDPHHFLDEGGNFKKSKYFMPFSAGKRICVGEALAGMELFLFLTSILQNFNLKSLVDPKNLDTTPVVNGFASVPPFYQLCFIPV

Cytochrome P450 2C19 = Cytochrome P450 2C19 (Homo sapiens, UniProt P33261); assay: Inhibition of CYP2C19 (unknown origin); format: ADME
Chain of Cytochrome P450 2C19 (P33261 whole entry): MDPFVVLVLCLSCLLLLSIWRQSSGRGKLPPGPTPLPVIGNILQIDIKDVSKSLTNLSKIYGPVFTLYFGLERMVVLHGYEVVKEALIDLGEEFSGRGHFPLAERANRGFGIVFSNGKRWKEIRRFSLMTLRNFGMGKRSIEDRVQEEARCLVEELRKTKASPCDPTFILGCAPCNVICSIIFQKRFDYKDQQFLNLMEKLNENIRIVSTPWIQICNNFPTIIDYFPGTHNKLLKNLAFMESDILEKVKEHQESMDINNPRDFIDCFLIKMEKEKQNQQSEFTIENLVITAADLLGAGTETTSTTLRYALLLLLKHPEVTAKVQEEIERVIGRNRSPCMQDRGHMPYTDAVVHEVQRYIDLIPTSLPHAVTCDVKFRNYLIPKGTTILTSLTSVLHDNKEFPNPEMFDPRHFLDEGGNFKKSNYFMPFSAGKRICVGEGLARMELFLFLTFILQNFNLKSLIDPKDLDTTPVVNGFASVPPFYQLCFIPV

Cytochrome P450 2D6 = Cytochrome P450 2D6 (Homo sapiens, UniProt P10635); assay: Inhibition of CYP2D6 (unknown origin); format: ADME
Chain of Cytochrome P450 2D6 (P10635 whole entry): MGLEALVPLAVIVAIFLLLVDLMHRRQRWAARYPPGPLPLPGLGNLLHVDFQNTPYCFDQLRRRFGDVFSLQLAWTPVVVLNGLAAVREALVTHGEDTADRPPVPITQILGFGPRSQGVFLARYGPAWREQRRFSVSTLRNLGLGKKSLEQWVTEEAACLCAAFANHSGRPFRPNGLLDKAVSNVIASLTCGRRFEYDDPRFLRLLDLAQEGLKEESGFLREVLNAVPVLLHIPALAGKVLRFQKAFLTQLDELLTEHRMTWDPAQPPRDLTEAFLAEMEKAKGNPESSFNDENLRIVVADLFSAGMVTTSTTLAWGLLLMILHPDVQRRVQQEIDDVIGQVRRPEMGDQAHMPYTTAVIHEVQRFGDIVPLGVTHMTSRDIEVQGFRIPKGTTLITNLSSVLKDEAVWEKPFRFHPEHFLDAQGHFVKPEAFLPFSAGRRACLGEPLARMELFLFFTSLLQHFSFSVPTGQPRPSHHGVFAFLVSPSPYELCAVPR

CYP3A = CYP3A (Homo sapiens, UniProt P08684+P20815+P24462+Q9HB55); assay: Inhibition of CYP3A (unknown origin) assessed as reduction in midazolam […] activity; format: ADME, protein assay; conditions: probe midazolam
[5] = molecular target: Prostaglandin E2 receptor EP4 subtype (Mus musculus, UniProt P32240); assay: Antagonist activity at mouse EP4 receptor transfected in HEK293 cells assessed as inhibition of PGE2-induced cAMP production measured for 30 mins by Glosensor cAMP assay; format: functional, cell-based
Chain of Prostaglandin E2 receptor EP4 subtype (Mus musculus, UniProt P32240) (P32240 whole entry): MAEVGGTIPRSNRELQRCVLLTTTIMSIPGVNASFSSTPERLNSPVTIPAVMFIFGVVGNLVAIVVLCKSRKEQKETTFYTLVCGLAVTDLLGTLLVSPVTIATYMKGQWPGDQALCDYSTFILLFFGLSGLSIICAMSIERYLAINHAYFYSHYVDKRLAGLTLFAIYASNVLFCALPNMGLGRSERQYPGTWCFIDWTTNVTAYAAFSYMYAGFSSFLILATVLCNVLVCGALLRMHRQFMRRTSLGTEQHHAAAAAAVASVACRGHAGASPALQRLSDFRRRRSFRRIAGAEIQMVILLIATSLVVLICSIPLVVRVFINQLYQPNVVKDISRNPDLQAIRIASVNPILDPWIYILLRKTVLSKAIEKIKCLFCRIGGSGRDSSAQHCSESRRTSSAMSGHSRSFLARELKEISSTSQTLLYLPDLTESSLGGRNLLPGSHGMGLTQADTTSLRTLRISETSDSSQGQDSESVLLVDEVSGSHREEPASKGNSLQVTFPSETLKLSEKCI

[6] = molecular target: Prostaglandin E2 receptor EP4 subtype (Rattus norvegicus, UniProt P43114); assay: Antagonist activity at rat EP4 receptor transfected in HEK293 cells assessed as inhibition of PGE2-induced cAMP production measured for 30 mins by Glosensor cAMP assay; format: functional, cell-based
Chain of Prostaglandin E2 receptor EP4 subtype (Rattus norvegicus, UniProt P43114) (P43114 whole entry): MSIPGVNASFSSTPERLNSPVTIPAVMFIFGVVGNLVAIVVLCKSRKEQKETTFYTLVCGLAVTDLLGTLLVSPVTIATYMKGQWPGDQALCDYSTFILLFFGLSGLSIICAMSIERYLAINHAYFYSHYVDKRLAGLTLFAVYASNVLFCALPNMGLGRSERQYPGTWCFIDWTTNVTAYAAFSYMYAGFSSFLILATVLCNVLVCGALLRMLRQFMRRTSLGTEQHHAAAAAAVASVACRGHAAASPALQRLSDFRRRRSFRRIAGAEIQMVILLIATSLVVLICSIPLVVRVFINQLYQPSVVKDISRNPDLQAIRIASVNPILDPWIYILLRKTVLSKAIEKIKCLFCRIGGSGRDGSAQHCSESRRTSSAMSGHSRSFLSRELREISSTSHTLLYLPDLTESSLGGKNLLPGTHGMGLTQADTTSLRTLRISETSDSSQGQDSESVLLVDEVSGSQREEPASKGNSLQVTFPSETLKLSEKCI

[7] = molecular target: Prostaglandin E2 receptor EP2 subtype (Homo sapiens, UniProt P43116); assay: Antagonist activity at human EP2 receptor expressed in CHO cells co-expressing Galpha16 assessed as inhibition of PGE2 induced intracellular calcium flux preincubated for 20 mins followed by PGE2 stimulation and measured immediately by microplate reader analysis; format: functional, cell-based
Chain of Prostaglandin E2 receptor EP2 subtype (P43116 whole entry): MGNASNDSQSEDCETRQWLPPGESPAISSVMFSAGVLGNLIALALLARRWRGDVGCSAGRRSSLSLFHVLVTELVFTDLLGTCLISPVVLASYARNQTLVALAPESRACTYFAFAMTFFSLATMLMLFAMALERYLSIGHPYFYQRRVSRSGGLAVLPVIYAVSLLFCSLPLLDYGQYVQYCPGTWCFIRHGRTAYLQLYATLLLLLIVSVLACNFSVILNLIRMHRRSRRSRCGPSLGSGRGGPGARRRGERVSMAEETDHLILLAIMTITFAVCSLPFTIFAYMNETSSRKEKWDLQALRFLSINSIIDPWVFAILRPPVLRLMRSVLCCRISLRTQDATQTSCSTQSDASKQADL

[8] = molecular target: T3, Prostaglandin E2 receptor EP3 subtype (Homo sapiens, UniProt P43115); assay: Antagonist activity at human EP3 receptor expressed in CHO cells co-expressing Galpha16 assessed as inhibition of PGE2 induced intracellular calcium flux preincubated for 20 mins followed by PGE2 stimulation and measured immediately by microplate reader analysis; format: functional, cell-based
T3 sequence (P43115 whole entry): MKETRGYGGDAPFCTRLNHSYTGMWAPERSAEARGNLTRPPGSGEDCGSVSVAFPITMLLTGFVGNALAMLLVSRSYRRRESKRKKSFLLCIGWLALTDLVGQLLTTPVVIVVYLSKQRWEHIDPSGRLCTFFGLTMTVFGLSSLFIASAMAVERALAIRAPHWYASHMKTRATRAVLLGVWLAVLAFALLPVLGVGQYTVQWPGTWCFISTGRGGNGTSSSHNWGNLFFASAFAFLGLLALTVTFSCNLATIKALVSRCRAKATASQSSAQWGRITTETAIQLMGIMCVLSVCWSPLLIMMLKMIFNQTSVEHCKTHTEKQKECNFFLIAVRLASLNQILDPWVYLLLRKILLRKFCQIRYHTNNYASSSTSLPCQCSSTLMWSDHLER

T1 sequence (P35408 whole entry): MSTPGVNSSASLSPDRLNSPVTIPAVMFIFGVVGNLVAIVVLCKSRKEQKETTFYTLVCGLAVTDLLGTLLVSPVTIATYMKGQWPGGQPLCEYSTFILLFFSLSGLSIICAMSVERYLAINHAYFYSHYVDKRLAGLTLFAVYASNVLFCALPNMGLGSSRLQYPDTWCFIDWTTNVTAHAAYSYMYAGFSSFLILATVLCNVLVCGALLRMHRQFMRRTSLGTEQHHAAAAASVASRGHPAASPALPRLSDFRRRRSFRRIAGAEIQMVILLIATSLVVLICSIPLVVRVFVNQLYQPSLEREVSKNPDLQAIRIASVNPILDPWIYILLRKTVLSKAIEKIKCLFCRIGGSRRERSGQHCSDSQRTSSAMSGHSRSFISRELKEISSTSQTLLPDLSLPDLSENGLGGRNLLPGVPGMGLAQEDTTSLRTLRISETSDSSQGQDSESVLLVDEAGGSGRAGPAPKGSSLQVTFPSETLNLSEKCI

## COc1ccc(Cn2nc3ccccc3c2C(=O)N[C@@H](C)c2ccc(C(=O)O)cc2)cc1
[1]
  IC50: 7.2 nM

## O=C(O)c1ccc(CNC(=O)c2c3ccccc3nn2Cc2ccc(Cl)c(F)c2)cc1
[1]
  IC50: 1.7 nM
[2]
  CLint scaled: < 8.6 mL/min/kg

## Cc1ccc(Cn2nc3ccccc3c2C(=O)NCc2ccc(C(=O)O)cc2)cc1
[1]
  IC50: 4.2 nM

## O=C(O)c1cccc(NC(=O)c2c3ccccc3nn2Cc2cccc(F)c2)c1
[1]
  IC50: 10000 nM

## COc1ccc(Cn2nc3ccccc3c2C(=O)NCc2ccc(C(=O)O)cc2)cc1Cl
[1]
  IC50: 6.5 nM

## COc1ccc(Cn2nc3ccccc3c2C(=O)NCc2ccc(C(=O)O)cc2)cc1F
[1]
  IC50: 2.1 nM

## O=C(O)c1ccc(CNC(=O)c2c3ccccc3nn2Cc2cccc(Cl)c2)cc1
[1]
  IC50: 6.9 nM

## C[C@H](NC(=O)c1c2ccccc2nn1Cc1ccc(OC(F)(F)F)cc1)c1ccc(C(=O)O)cc1
[1]
  IC50: 4.3 nM

## O=C(O)c1ccc(CNC(=O)c2c3ccccc3nn2Cc2cccc(F)c2)cc1
[1]
  IC50: 17 nM

## COc1cccc(Cn2nc3ccccc3c2C(=O)N[C@@H](C)c2ccc(C(=O)O)cc2)c1
[1]
  IC50: 19 nM

## C[C@]12CC[C@H]3[C@@H](CCC4=CC(=O)CC[C@@]43C)[C@@H]1CC[C@@H]2O [TESTOSTERONE]
[2]
  CLint scaled: 97.4 mL/min/kg
[3]
  CLH: 0.1082 mL/min/kg

## O=C(O)Cc1ccccc1Nc1c(Cl)cccc1Cl [DICLOFENAC]
[2]
  CLint scaled: 187 mL/min/kg
[3]
  CLH: 0.2079 mL/min/kg

## COc1cccc(Cn2nc(C(=O)NCc3ccc(C(=O)O)cc3)c3ccccc32)c1
[1]
  IC50: 10000 nM

## COc1ccc2c(C(=O)NCc3ccc(C(=O)O)cc3)n(Cc3ccc(C(F)(F)F)cc3)nc2c1
[1]
  IC50: 59.4 nM

## O=C(O)c1ccc(CNC(=O)c2nn(Cc3ccc(Cl)cc3)c3ccccc23)cc1
[1]
  IC50: 10000 nM

## O=C(O)c1ccc(CNC(=O)c2c3ccccc3nn2CCOc2cccc(C(F)(F)F)c2)cc1
[1]
  IC50: 69.1 nM

## COc1c(F)cc(Cn2nc3ccccc3c2C(=O)NCc2ccc(C(=O)O)cc2)cc1F
[1]
  IC50: 7.5 nM

## O=C(O)c1ccc(CNC(=O)c2c3ccccc3nn2Cc2ccc(F)cc2)cc1
[1]
  IC50: 7.1 nM

## O=C(O)c1ccc(NC(=O)c2c3ccccc3nn2Cc2ccc(F)cc2)cc1
[4]
  IC50: 3110 nM

## O=C(O)c1ccc(C2(NC(=O)c3c4ccccc4nn3Cc3ccc(C(F)(F)F)cc3)CC2)cc1
[1]
  IC50: 6.9 nM

## O=C(O)c1ccc(CNC(=O)c2c3ccc(F)cc3nn2Cc2ccc(C(F)(F)F)cc2)cc1
[1]
  IC50: 5.7 nM
[2]
  CLint scaled: < 8.6 mL/min/kg

## O=C(O)c1ccc(CNC(=O)c2nn(Cc3ccc(OC(F)(F)F)cc3)c3ccccc23)cc1
[1]
  IC50: 10000 nM

## COc1ccc(Cn2nc3ccccc3c2C(=O)NCc2ccc(C(=O)O)cc2)cc1
[1]
  IC50: 4.4 nM

## O=C(O)c1ccc(CNC(=O)c2nn(Cc3ccc(C(F)(F)F)cc3)c3ccccc23)cc1
[1]
  IC50: 10000 nM

## O=C(O)c1ccc(CNC(=O)c2nn(Cc3cccc(Cl)c3)c3ccccc23)cc1
[1]
  IC50: 10000 nM

## C[C@H](NC(=O)c1c(C(F)F)nn(C)c1Oc1cccc(C(F)(F)F)c1)c1ccc(C(=O)O)cc1 [PALUPIPRANT]
CT26
  inhibition in vivo at 100 mg/kg: 43.3%

## O=C(O)c1ccc(CNC(=O)c2c3ccccc3nn2Cc2ccc(C(F)(F)F)cc2)cc1
Cytochrome P450 1A2
  IC50: > 50000 nM
Cytochrome P450 2C9
  IC50: > 50000 nM
Cytochrome P450 2C19
  IC50: > 50000 nM
Cytochrome P450 2D6
  IC50: > 50000 nM
CYP3A
  IC50: > 50000 nM
[5]
  IC50: 1.6 nM
[6]
  IC50: 36.3 nM
[7]
  IC50: > 10000 nM
[8]
  IC50: > 10000 nM

## COc1cccc(Cn2nc3ccccc3c2C(=O)NCc2ccc(C(=O)O)cc2)c1
[1]
  IC50: 12 nM

## O=C(O)c1ccc(CNC(=O)c2c3ccccc3nn2Cc2ccc(C(F)(F)F)cc2F)cc1
[1]
  IC50: 2 nM

## O=C(O)c1cccc(NC(=O)c2c3ccccc3nn2Cc2ccc(F)cc2)c1
[1]
  IC50: 10000 nM

## O=C(O)c1ccc(CNC(=O)c2nn(Cc3ccccc3)c3ccccc23)cc1
[1]
  IC50: 10000 nM

## COc1ccc(Cn2nc(C(=O)NCc3ccc(C(=O)O)cc3)c3ccccc32)cc1
[1]
  IC50: 10000 nM

## O=C(O)c1ccc(CNC(=O)c2nn(Cc3cccc(C(F)(F)F)c3)c3ccccc23)cc1
[1]
  IC50: 10000 nM

## O=C(O)c1ccc(CNC(=O)c2c3ccccc3nn2CCOc2ccc(Cl)cc2)cc1
[1]
  IC50: 21.8 nM
